Tests used:
[1] = system: A549 lung cancer cells; assay: Pretreatment followed by various chemotherapeutic agents, A549; type: cell-based, human
Experimental: (§1) Human T24 bladder and A549 lung cancer cells were exposed to increasing concentrations of pivaloyloxymethyl butyrate for 6 or 72 hours followed by exposure to various chemotherapeutic agents. […] At higher dosages the increase in cytotoxicity following the sequential regimen would show after a shorter induction period with pivaloyloxymethyl butyrate as discussed above.

[2] = Biological evaluations (myeloablation, myelosuppression)
From the text: Pivaloyloxymethyl butyrate functions as a differentiating agent with activity against multiple tumor cell types in culture.

[3] = system: T24 Bladder transitional carcinoma cells; assay: Crystal violet microtiter assay, Pivanex then cytotoxic drug, T24; type: cell-based, human
Experimental: (§2) T24 Bladder transitional carcinoma cells, Calu-6 anaplastic lung carcinoma cells, and SK-MES-1 squamous lung cell carcinoma cell cultures were purchased from the American Type Culture Collection (Manassas, Va.). All cell lines were cultured in RPMI-1640 with 10% fetal calf serum. For culture in microtiter dishes, cells were plated at a density of 10^4 cells/well and incubated at 37° C., 5% CO2 overnight.
(§3) After overnight incubation, drugs were added to wells in quadruplicate and incubated for 6 to 96 hours in the presence or absence of the oxyalkylene containing compound. […] the media was removed, fresh media were added with cytotoxic drug, and the cultures were incubated for another 6 hours.
(§4) The wells were then washed and medium without drug was added to each well. Microtiter plates were subsequently incubated for an additional 3 days before cell density was determined by a Crystal Violet Assay. Some cultures were alternatively fixed in methanol and stained with hematoxylin and eosin (H&E) stain for 5 minutes prior to microphotography.
(§5) PIVANEX (pivaloyloxymethyl butyrate) was obtained from Titan Pharmaceuticals Inc. (South San Francisco, Calif.) and was admixed with 0.05% Intralipid™ (Fresenius Kabi, Clayton, N.C.) prior to addition to culture media. The cytotoxic drugs gemcitabine (Gemzar; Eli Lilly and Co., Indianapolis, Ind.), cisplatin (Platinol, Bristol-Myers Squibb Co., Princeton, N.J.), paclitaxel (Taxol; Bristol-Myers Squibb Co., Princeton, N.J.), and docetaxel (Taxotere, Aventis Pharmaceuticals Products, Inc., Bridgewater, N.J.) were studied with PIVANEX.
(§6) Cells in microtiter wells were rinsed with PBS and fixed in two volumes of 100% cold methanol for 5 minutes. One volume of 0.5% crystal violet in 20% methanol was added and the attached cells stained for 10 minutes. The cells were then washed and crystal violet was eluted with 0.1 N sodium citrate buffer and read on an ELISA plate reader at 490 nm.

[4] = system: Calu-6 anaplastic lung carcinoma cells; assay: Crystal violet microtiter assay, Pivanex then cytotoxic drug, Calu-6; type: cell-based
Experimental: as §2, §3, §4, §5, §6

[5] = system: SK-MES-1 squamous lung cell carcinoma cell; assay: Crystal violet microtiter assay, Pivanex then cytotoxic drug, SK-MES-1; type: cell-based; details: for SK-MES-1 cancer cell viability (A^490 Absorbance): paclitaxel 0 μM
Experimental: as §2, §3, §4, §5, §6

[6] = system: H23 (NCI-H23) NSCLC cell line; assay: MTS growth inhibition assay, sequencing of Pivanex and docetaxel, H23; type: cell-based, human; details: after 24 hour exposure
Experimental: Human Non-Small Cell Lung Carcinoma Cell Lines, H522 and NCI-H23, were evaluated for growth inhibitory activity of Pivanex, alone and in combination with the standard chemotherapeutic agent, docetaxel. Cells were treated for three days with Pivanex followed by 24 hours of exposure to docetaxel or the cells were treated for 24 hours with docetaxel followed by three days of exposure to Pivanex. The cell growth inhibition was judged at the end of the 4-day experiments by a standard staining technique using MTS tetrazolium vital stain. […]
Exponentially growing cells were harvested with trypsin (0.05%)/EDTA (0.02%) and re-suspended in fresh medium containing 10% FBS. […] Absorbance was documented on a Dynex HD microplate reader at a wavelength of 490 nm. IC50 values were determined by using the Prism® GraphPad software from 3 different tests, each of which involved 4 replicates for each dose determination. The data are presented as percent growth inhibition, where 0% represents the mean value in wells to which only vehicle (0.1% DMSO) was added and was calculated as follows: % Growth Inhibition=(1−(ODtest/ODvehicle))×100 where ODtest is the optical density of the tested sample, OD vehicle is the optical density of the vehicle in which each respected drug is dissolved.

[7] = system: tumor cells; assay: Growth inhibitory and cytotoxic effects on tumor cells in tissue culture; type: cell-based; details: tumor cell line dependent
From the text: Testing of a pivaloyloxymethyl butyrate dose and schedule interactions with chemotherapy in tissue culture was undertaken to facilitate clinical planning.
(§7) The observed morphologic changes consistent with a more differentiated phenotype prompted investigation of oncogene expression following exposure to pivaloyloxymethyl butyrate.

[8] = system: c-Myc oncogene; assay: c-Myc oncogene expression by RT-PCR, T24 cells; type: cell-based, human; details: for c-Myc oncogene expression: 96 hour exposure
Experimental: as §2, §3
(§8) Tumor cell culture mRNA was isolated by standard methods, and RT-PCR was conducted to determine levels of c-Myc oncogene expression. The c-Myc primer pair used for RT-PCR cycling was:
(§9) The c-Myc primer pair was cycled by the following program: 95° C. for 3 min., then 30 cycles of (95° C. for 1 min., then 55° C. for 1 min., then 72° C. for 1 min.) followed by holding temperature at 72° C. for 7 min. before ramping temperature to 4° C. Samples were analyzed quantitatively by 1% agarose gel electrophoresis and gel densitometry.

[9] = Preliminary Phase I/II clinical trials, lung cancer and refractory malignancies metastatic to the liver; type: in vivo, human
[10] = system: T24 bladder cancer cells; assay: Pretreatment followed by various chemotherapeutic agents, T24; type: cell-based, human
Experimental: as §1

[11] = system: c-Myc oncogene; assay: c-Myc oncogene expression by RT-PCR, Calu-6 cells; type: cell-based; details: for c-Myc oncogene expression: 96 hour exposure, n = 2
Experimental: as §2, §3, §8, §9

[12] = system: ras; assay: Oncogene expression after exposure of tumor cells; type: cell-based; details: 72-hour exposure, 10-50 μM
From the text: as §7

[13] = system: c-myc; assay: Oncogene expression after exposure of tumor cells; type: cell-based; details: 72-hour exposure, 10-50 μM
From the text: as §7

[14] = system: p53; assay: Oncogene expression after exposure of tumor cells; type: cell-based; details: 72-hour exposure, 10-50 μM
From the text: as §7

[15] = system: c-Myc oncogene; assay: c-Myc oncogene expression, SK-MES-1 cells; type: cell-based; details: SK-MES-1, 96 hours in culture
Experimental: as §2, §3, §8, §9

[16] = Pivanex 50 μM, gemcitabine 0 nM
[17] = Pivanex 100 μM, gemcitabine 0 nM

## CCCC(=O)OCOC(=O)C(C)(C)C [Pivanex, pivaloyloxymethyl butyrate]
[1]; A549, 6-hour pretreatment, lower doses
  enhancement of cytotoxicity of chemotherapeutic agents: did not enhance cytotoxicity
[1]; A549, 72-hour pretreatment
  enhancement of cytotoxicity of chemotherapeutic agents: did enhance drug-induced cytotoxicity
[2]
  myeloablation / myelosuppression: non-myeloablative and non-myelosuppressive
[3]; Pivanex 10 μM, cisplatin 0 μM
  T24 cancer cell viability (A^490 Absorbance): 0.48
[3]; Pivanex 25 μM, gemcitabine 0 nM
  T24 cancer cell viability (A^490 Absorbance): 0.479
[3]; Pivanex 50 μM, cisplatin 0 μM
  T24 cancer cell viability (A^490 Absorbance): 0.422
[3]; [16]
  T24 cancer cell viability (A^490 Absorbance): 0.455
[3]; [17]
  T24 cancer cell viability (A^490 Absorbance): 0.414
[3]; Pivanex 200 μM, gemcitabine 0 nM
  T24 cancer cell viability (A^490 Absorbance): 0.41
[4]; Pivanex 10 μM, cisplatin 0 μM
  Calu-6 cancer cell viability (A^490 Absorbance): 0.617
[4]; Pivanex 10 μM, docetaxel 0 nM
  Calu-6 cancer cell viability (A^490 Absorbance): 0.732
[4]; Pivanex 10 μM, gemcitabine 0 nM
  Calu-6 cancer cell viability (A^490 Absorbance): 0.617
[4]; Pivanex 50 μM, cisplatin 0 μM
  Calu-6 cancer cell viability (A^490 Absorbance): 0.577
[4]; Pivanex 50 μM, docetaxel 0 nM
  Calu-6 cancer cell viability (A^490 Absorbance): 0.553
[4]; [16]
  Calu-6 cancer cell viability (A^490 Absorbance): 0.577
[4]; Pivanex 100 μM, cisplatin 0 μM
  Calu-6 cancer cell viability (A^490 Absorbance): 0.284
[4]; [17]
  Calu-6 cancer cell viability (A^490 Absorbance): 0.284
[5]; Pivanex 10 μM
  SK-MES-1 cancer cell viability (A^490 Absorbance): 0.743
[5]; Pivanex 25 μM alone
  SK-MES-1 non-small cancer cell viability (A^490 Absorbance): 1.852
[5]; Pivanex 50 μM
  SK-MES-1 cancer cell viability (A^490 Absorbance): 0.769
[5]; Pivanex 100 μM alone
  SK-MES-1 non-small cancer cell viability (A^490 Absorbance): 1.908
[5]; Pivanex 200 μM alone
  SK-MES-1 non-small cancer cell viability (A^490 Absorbance): 1.952
[6]
  cell growth with agent alone: steep increase in H23 cell growth
[7]; 6-hour exposure
  concentrations at which cytotoxicity was observed: greater than 125 μM
[7]; 72 hours of treatment
  concentrations at which cytotoxicity was observed: greater than 25 μM
[8]; Pivanex 10 μM
  c-Myc oncogene expression: 760 PCR units
[8]; Pivanex 25 μM
  c-Myc oncogene expression: 972 PCR units
[8]; Pivanex 50 μM
  c-Myc oncogene expression: 966 PCR units
[8]; Pivanex 100 μM
  c-Myc oncogene expression: 640 PCR units
[8]; Pivanex 200 μM
  c-Myc oncogene expression: 560 PCR units
[8]; T-24, 96 hours in culture
  concentrations (as low as) that decreased the expression of c-Myc oncogene: 10 to 50 µM
[9]
  tolerability: well tolerated
[10]; T24, 6-hour pretreatment, lower doses
  enhancement of cytotoxicity of chemotherapeutic agents: did not enhance cytotoxicity
[10]; T24, 72-hour pretreatment
  enhancement of cytotoxicity of chemotherapeutic agents: did enhance drug-induced cytotoxicity
[11]; Calu-6, 96 hours in culture
  concentrations (as low as) that decreased the expression of c-Myc oncogene: 10 to 50 µM
[11]; Pivanex 10 μM
  c-Myc oncogene expression: 893 PCR units
[11]; Pivanex 25 μM
  c-Myc oncogene expression: 743 PCR units
[11]; Pivanex 50 μM
  c-Myc oncogene expression: 711 PCR units
[11]; Pivanex 100 μM
  c-Myc oncogene expression: 647 PCR units
[11]; Pivanex 200 μM
  c-Myc oncogene expression: 460 PCR units
[12]
  ras expression: significant suppression
[13]
  c-myc expression: significant suppression
[14]
  p53 expression: significant suppression
[15]
  concentrations (as low as) that decreased the expression of c-Myc oncogene: 10 to 50 µM
